Common to all, as to type: cell-based
The test system of assay [1] is Klebsiella pneumoniae XNWB 0006. The experiment in a line: MIC assay of test compounds combined with ceftazidime (8 μg/mL). Conditions: ceftazidime 8 μg/mL fixed. The method, boiled down:
(§1)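 MIC determined by CLSI-guided broth microdilution in CAMHB after 16-20 h at 35±2 °C, with growth and sterile control wells. Test compound series co-dosed with fixed-level ceftazidime or imipenem; inoculum from TSA-grown colonies, adjusted to OD600 0.1-0.15 then diluted 300-fold.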

Assay [2] deals with Klebsiella pneumoniae XNWB 0002. The description is as above. Conditions: ceftazidime 8 μg/mL fixed. The method, boiled down:
as §1

Assay [3] deals with Klebsiella pneumoniae XNWB 0003. The description is as above. Conditions: ceftazidime 8 μg/mL fixed. In short, it runs like this: as §1
In assay [4] the test system is Acinetobacter baumannii XNWB 0007. The assay is described as above. Conditions: ceftazidime 8 μg/mL fixed. In short, it runs like this:
as §1

In assay [5] the test system is Klebsiella pneumoniae XNWB 0004. Described as above. Conditions: ceftazidime 8 μg/mL fixed. The method, boiled down: as §1
The subject of assay [6] is Pseudomonas aeruginosa XNWB 0008. Described as above. Conditions: ceftazidime 8 μg/mL fixed. The method, boiled down: as §1
The test system of assay [7] is Klebsiella pneumoniae XNWB 0001. The assay is described as above. Conditions: ceftazidime 8 μg/mL fixed. In short, it runs like this: as §1
Assay [8] deals with Klebsiella pneumoniae XNWB 0005. The assay is described as above. Conditions: ceftazidime 8 μg/mL fixed. In short, it runs like this:
as §1

The subject of assay [9] is Klebsiella pneumoniae XNWB 0006. In words: MIC assay of test compounds combined with imipenem (4 μg/mL). Conditions: imipenem 4 μg/mL fixed. The method, boiled down:
as §1

Assay [10] relates to Klebsiella pneumoniae XNWB 0002. The assay is described as above. Conditions: imipenem 4 μg/mL fixed. The method, boiled down:
as §1

Assay [11] deals with Klebsiella pneumoniae XNWB 0003. The description is as above. Conditions: imipenem 4 μg/mL fixed. In short, it runs like this:
as §1

In assay [12] the test system is Acinetobacter baumannii XNWB 0007. Described as above. Conditions: imipenem 4 μg/mL fixed. In short, it runs like this: as §1
Assay [13] concerns Klebsiella pneumoniae XNWB 0004. The assay is described as above. Conditions: imipenem 4 μg/mL fixed. In short, it runs like this: as §1
Assay [14] concerns Pseudomonas aeruginosa XNWB 0008. Described as above. Conditions: imipenem 4 μg/mL fixed. In short, it runs like this:
as §1

In assay [15] the test system is Klebsiella pneumoniae XNWB 0001. Described as above. Conditions: imipenem 4 μg/mL fixed. The method, boiled down: as §1
Assay [16] has as its system Klebsiella pneumoniae XNWB 0005. The assay is described as above. Conditions: imipenem 4 μg/mL fixed. In short, it runs like this: as §1

Counter-ions that a name gives are not always drawn.

Consider `O=C1N2C[C@H](N1OS(=O)(=O)O)C1(CC1)C[C@H]2c1nnco1` [Example 1, (1R,4S)-4-(1,3,4-oxadiazol-2-yl)-6-oxo-5,7-diazaspiro[bicyclo[3.2.1]octane-2,1′-cyclopropan]-7-yl sulfate], for which the “The minimum concentration of test compounds combined with ceftazidime (8 μg/mL) for bacteriostasis” value in assay [1] is listed as “A (A: <8 μg/mL)”; in assay [2], “A (A: <8 μg/mL)”; in assay [3], “A (A: <8 μg/mL)”; in [4], “C (C: 16-128 μg/mL)”; in assay [5], “B (B: 8-16 μg/mL)”; in [6], “C (C: 16-128 μg/mL)”. Also, the “The minimum concentration of test compounds combined with ceftazidime (8 μg/mL) for bacteriostasis” value in [7] and in assay [8] was “A (A: <8 μg/mL)” throughout. Besides, the “The minimum concentration of test compounds combined with imipenem (4 μg/mL) for bacteriostasis” value was “A (A: <8 μg/mL)” in assay [9]; “A (A: <8 μg/mL)” in assay [10]; “A (A: <8 μg/mL)” in assay [11]; “C (C: 16-128 μg/mL)” in assay [12]; “A (A: <8 μg/mL)” in assay [13]; “C (C: 16-128 μg/mL)” in assay [14]. In addition, the “The minimum concentration of test compounds combined with imipenem (4 μg/mL) for bacteriostasis” value in [15] and in [16] was “A (A: <8 μg/mL)” each time.

In the case of `NC1CC(c2cc([C@@H]3CC4(CC4)[C@@H]4CN3C(=O)N4OS(=O)(=O)O)no2)C1` (single isomer, unassigned) [Example 52], the “The minimum concentration of test compounds combined with ceftazidime (8 μg/mL) for bacteriostasis” value is recorded as “A (A: <8 μg/mL)” in assay [1]; “A (A: <8 μg/mL)” in assay [2]; “B (B: 8-16 μg/mL)” in [3]; “C (C: 16-128 μg/mL)” in [4]; “B (B: 8-16 μg/mL)” in assay [5]; “C (C: 16-128 μg/mL)” in assay [6]. The “The minimum concentration of test compounds combined with ceftazidime (8 μg/mL) for bacteriostasis” value in assay [7] is given as “A (A: <8 μg/mL)”; in assay [8], “B (B: 8-16 μg/mL)”. In addition, the “The minimum concentration of test compounds combined with imipenem (4 μg/mL) for bacteriostasis” value in [9] is listed as “A (A: <8 μg/mL)”; in [10], “A (A: <8 μg/mL)”; in [11] it was “A (A: <8 μg/mL)”; in [12] it was “C (C: 16-128 μg/mL)”; in [13], “A (A: <8 μg/mL)”; in assay [14], “A (A: <8 μg/mL)”. Moreover, the “The minimum concentration of test compounds combined with imipenem (4 μg/mL) for bacteriostasis” value in assay [15] and in [16] was “A (A: <8 μg/mL)” throughout.

With `N=C(N)NC[C@@H](O)c1cc([C@@H]2CC3(CC3)[C@@H]3CN2C(=O)N3OS(=O)(=O)O)no1` [Example 40, (1R,4S)-4-(5-((R)-2-guanidyl-1-hydroxyethyl)isoxazol-3-yl)-6-oxo-5,7-diazaspiro [bicyclo[3.2.1]octane-2,1′-cyclopropan]-7-yl sulfate], the “The minimum concentration of test compounds combined with ceftazidime (8 μg/mL) for bacteriostasis” value in [1] is recorded as “A (A: <8 μg/mL)”; in [2], “A (A: <8 μg/mL)”; in assay [3] it was “A (A: <8 μg/mL)”; in assay [4], “C (C: 16-128 μg/mL)”; in assay [5], “A (A: <8 μg/mL)”; in assay [6], “B (B: 8-16 μg/mL)”. The “The minimum concentration of test compounds combined with ceftazidime (8 μg/mL) for bacteriostasis” value in assay [7] and in assay [8] was “A (A: <8 μg/mL)” in each case. The “The minimum concentration of test compounds combined with imipenem (4 μg/mL) for bacteriostasis” value in assay [9] is recorded as “A (A: <8 μg/mL)”; in assay [10] it was “A (A: <8 μg/mL)”; in assay [11], “A (A: <8 μg/mL)”; in assay [12], “C (C: 16-128 μg/mL)”; in assay [13], “A (A: <8 μg/mL)”; in assay [14], “A (A: <8 μg/mL)”. Moreover, the “The minimum concentration of test compounds combined with imipenem (4 μg/mL) for bacteriostasis” value in assay [15] and in assay [16] was “A (A: <8 μg/mL)” each time.

With `N[C@H]1CC[C@@H](c2nnc([C@@H]3CC4(CC4)[C@@H]4CN3C(=O)N4OS(=O)(=O)O)o2)C1` [Example 17, (1R,4S)-4-(5-((1R,3S)-3-aminocyclopentyl)-1,3,4-oxadiazol-2-yl)-6-oxo-5,7-diazaspiro [bicyclo[3.2.1]octane-2,1′-cyclopropan]-7-yl sulfate], the “The minimum concentration of test compounds combined with ceftazidime (8 μg/mL) for bacteriostasis” value in [1] is “A (A: <8 μg/mL)”; in assay [2], “A (A: <8 μg/mL)”; in [3] it was “A (A: <8 μg/mL)”; in [4], “C (C: 16-128 μg/mL)”; in [5], “A (A: <8 μg/mL)”; in assay [6], “B (B: 8-16 μg/mL)”. The “The minimum concentration of test compounds combined with ceftazidime (8 μg/mL) for bacteriostasis” value in assay [7] and in assay [8] was “A (A: <8 μg/mL)” in each case. Besides, the “The minimum concentration of test compounds combined with imipenem (4 μg/mL) for bacteriostasis” value in [9] is “A (A: <8 μg/mL)”; in assay [10] it was “A (A: <8 μg/mL)”; in assay [11], “A (A: <8 μg/mL)”; in [12] it was “B (B: 8-16 μg/mL)”; in [13], “A (A: <8 μg/mL)”; in assay [14] it was “A (A: <8 μg/mL)”. Moreover, the “The minimum concentration of test compounds combined with imipenem (4 μg/mL) for bacteriostasis” value in assay [15] and in assay [16] was “A (A: <8 μg/mL)” throughout.

Regarding `N[C@@H]1CCC(c2nnc([C@@H]3CC4(CC4)[C@@H]4CN3C(=O)N4OS(=O)(=O)O)o2)C1` (stereo in doubt) [Example 18, (1R,4S)-4-(5-((1R,3R)-3-aminocyclopentyl)-1,3,4-oxadiazol-2-yl)-6-oxo-5,7-diazaspiro [bicyclo[3.2.1]octane-2,1′-cyclopropan]-7-yl sulfate], the “The minimum concentration of test compounds combined with ceftazidime (8 μg/mL) for bacteriostasis” value is reported as “A (A: <8 μg/mL)” in assay [1]; “A (A: <8 μg/mL)” in assay [2]; “A (A: <8 μg/mL)” in assay [3]; “C (C: 16-128 μg/mL)” in assay [4]; “B (B: 8-16 μg/mL)” in assay [5]; “B (B: 8-16 μg/mL)” in [6]. In addition, the “The minimum concentration of test compounds combined with ceftazidime (8 μg/mL) for bacteriostasis” value in assay [7] and in assay [8] was “A (A: <8 μg/mL)” each time. Besides, the “The minimum concentration of test compounds combined with imipenem (4 μg/mL) for bacteriostasis” value in [9] was “A (A: <8 μg/mL)”; in [10], “A (A: <8 μg/mL)”; in assay [11] it was “A (A: <8 μg/mL)”; in assay [12], “B (B: 8-16 μg/mL)”; in [13], “A (A: <8 μg/mL)”; in [14], “A (A: <8 μg/mL)”. Also, the “The minimum concentration of test compounds combined with imipenem (4 μg/mL) for bacteriostasis” value in assay [15] and in assay [16] was “A (A: <8 μg/mL)” throughout.

Values taken from patent US11078202B2, “β-lactamase inhibitor and use thereof” (priority 2018, dated 2021).
